Data taken from patent US7807656B2, “Pharmaceutical applications of hyaluronic acid preparations” (priority 2001, dated 2010).

Tested on: adipose tissue
Test: addition of hyaluronic acid to liposuction infiltration solution
Format: in vivo
Details: added to infiltration solution
Protocol: Hyaluronic acid can also be added to infiltration solutions which are injected into the tissue prior to a liposuction. These infiltration solutions are usually isotonic or hypotonic salt solutions which can contain additives, for example blood vessel-contracting and/or pain-reducing additives, such as noradrenaline, adrenaline, lidocaine, prilocalne, bicarbonate, corticosteroids, etc. Hyaluronic acid (crosslinked and/or uncrosslinked hyaluronic acid) is advantageously added to these solutions at concentrations of from 0.001 to 1.0% (wt/vol), preferably of from 0.01 to 0.5% (wt/vol), e.g. of about 0.025% (wt/vol). […] Furthermore, structures in the adipose tissue which are worth conserving, such as blood vessels, nerves or connective tissue bands, are spared. Adding the hyaluronic acid also makes the process of liposuction markedly more atraumatic when compared with the conventional procedure. […] This also leads to a reduction in the tissue trauma. All in all, adding hyaluronic acid to the infiltration solution protects the remaining adipose tissue in the body and results in the adipose tissue aspirate being withdrawn in a gentler manner.
This is of importance insofar as adipose tissue aspirates can be used as endogenous transplants. […]

## hyaluronic acid
  survival of fat cells in the aspirate: improves the survival of fat cells
Aspirate transplanted
  growth of transferred tissue at the recipient site: grow more strongly
